From ChEMBL document CHEMBL5241137, “Evaluation of carboxylic acid-derivatized corroles as novel gram-positive antibacterial agents under non-photodynamic inactivation conditions” (2023)
Values after ≈ are worked out from the molar mass of the structure shown.

Legend:
Staphylococcus aureus [1] = experiment: Antibacterial activity against methicillin-resistant Staphylococcus aureus […] assessed as reduction in bacterial growth measured under non-photodynamic inactivation condition; type: functional; settings: light or radiation study
Staphylococcus aureus [2] = experiment: Antibacterial activity against methicillin-sensitive Staphylococcus aureus ATCC 29213 assessed as reduction in bacterial growth measured under non-photodynamic inactivation condition; type: functional; settings: ATCC 29213, light or radiation study

Structure (SMILES) | MIC (Staphylococcus aureus [1]) | MIC (Staphylococcus aureus [2])
O=C(O)c1ccc(-c2c3nc(c(-c4ccc(C(=O)O)cc4)c4ccc([nH]4)c4ccc([nH]4)c(-c4ccc(C(=O)O)cc4)c4ccc2[nH]4)C=C3)cc1 | 100 µg/mL (≈ 152 µM) | 100 µg/mL (≈ 152 µM)
Cc1ccc(-c2c3nc(c(-c4ccc(C(=O)O)cc4)c4ccc([nH]4)c(-c4ccc(C)cc4)c4ccc([nH]4)c4ccc2[nH]4)C=C3)cc1 | 100 µg/mL (≈ 167 µM) | 100 µg/mL (≈ 167 µM)
O=C(O)c1ccc(C(c2ccc[nH]2)c2ccc[nH]2)cc1 | 50 µg/mL (≈ 188 µM) | 50 µg/mL (≈ 188 µM)
Fc1cc(F)c(F)c(-c2c3nc(c(-c4c(F)c(F)c(F)c(F)c4F)c4ccc([nH]4)c(-c4c(F)c(F)cc(F)c4F)c4ccc([nH]4)c4ccc2[nH]4)C=C3)c1F | 12.5 µg/mL (≈ 16.4 µM) | 25 µg/mL (≈ 32.9 µM)
Cc1c(C(=O)O)[nH]c(C(c2ccccc2)c2[nH]c(C(=O)O)c(C)c2C)c1C | 50 µg/mL (≈ 136 µM) | 100 µg/mL (≈ 273 µM)
CO[C@@]1(NC(=O)Cc2cccs2)C(=O)N2C(C(=O)O)=C(COC(N)=O)CS[C@@H]21 [CEFOXITIN] | 25 µg/mL (≈ 58.5 µM) | 3.12 µg/mL (≈ 7.3 µM)
CN[C@H](CC(C)C)C(=O)N[C@H]1C(=O)N[C@@H](CC(N)=O)C(=O)N[C@H]2C(=O)N[C@H]3C(=O)N[C@H](C(=O)N[C@H](C(=O)O)c4cc(O)cc(O)c4-c4cc3ccc4O)[C@H](O)c3ccc(c(Cl)c3)Oc3cc2cc(c3O[C@@H]2O[C@H](CO)[C@@H](O)[C@H](O)[C@H]2O[C@H]2C[C@](C)(N)[C@H](O)[C@H](C)O2)Oc2ccc(cc2Cl)[C@H]1O [VANCOMYCIN] | 0.39 µg/mL (≈ 0.269 µM) | 0.39 µg/mL (≈ 0.269 µM)
O=S(=O)(O)CCNc1c(F)c(F)c(-c2c3nc(c(-c4c(F)c(F)c(NCCS(=O)(=O)O)c(F)c4F)c4ccc([nH]4)c4ccc([nH]4)c(-c4c(F)c(F)c(NCCS(=O)(=O)O)c(F)c4F)c4ccc2[nH]4)C=C3)c(F)c1F | 100 µg/mL (≈ 89.9 µM) | > 100 µg/mL
Cc1ccc(-c2c3nc(c(-c4cc(C(=O)O)cc(C(=O)O)c4)c4ccc([nH]4)c4ccc([nH]4)c(-c4cc(C(=O)O)cc(C(=O)O)c4)c4ccc2[nH]4)C=C3)cc1 | 12.5 µg/mL (≈ 17.4 µM) | 12.5 µg/mL (≈ 17.4 µM)
